Laboratory results taken from patent US20210024542A1 (Torcept Therapeutics, Inc., priority 2018, published 2021).

Columns and labels:
[1] = test system: NCIH446; assay: OncoPanel cell proliferation assay, NCIH446; type: cell-based, human; settings: for Relative cell count (%) Mean: NCIH446
Protocol: (§1) Cells were grown in RPMI 1640, 10% FBS, 2 mM L-alanyl-L-glutamine, 1 mM Na pyruvate, or a special medium. Cells were seeded into 384-well plates and incubated in a humidified atmosphere of 5% CO2 at 37° C. Compounds were added the day following cell seeding. At the same time, a time zero untreated cell plate was generated. After a 3-day incubation period, cells were fixed and stained to allow fluorescence imaging of nuclei. Compounds (1 mM stock solutions) were serially diluted in half-log steps from the highest test concentration ([…]), and assayed over 10 concentrations with a maximum assay concentration of 0.1% DMSO. Automated fluorescence microscopy was carried out using a Molecular Devices ImageXpress Micro XL high-content imager, and images were collected with a 4× objective. 16-bit TIFF images were acquired and analyzed with MetaXpress 5.1.0.41 software.
(§2) Cell proliferation was measured by the fluorescence intensity of an incorporated nuclear dye. The output is referred to as the relative cell count, where the measured nuclear intensity is transformed to percent of control (POC) using the following formula: […]
(§3) Cellular response parameters were calculated using nonlinear regression to a sigmoidal single-site dose response model:
(§4) Where y is a response measured at concentration x, A and B are the lower and upper limits of the response, C is the concentration at the response midpoint (EC50), and D is the Hill Slope (Ref. 1).
(§5) EC50 is the test compound concentration at the curve inflection point or half the effective response (parameter C of the fitted curve solution). GI50 is the concentration needed to reduce the observed growth by half (midway between the curve maximum and the time zero value). “Cell Count Activity Area” is an estimate of the integrated area above the curve (Barretina, et al. The Cancer Cell Line Encyclopedia enables predictive modelling of anticancer drug sensitivity. Nature 483: 603-607). […] In rare instances, values <0 or >10 may be observed. […] Curve-fitting, calculations, and report generation was performed using a custom data reduction engine and MathIQ based software (AIM).

[2] = test system: ST486; assay: OncoPanel cell proliferation assay, ST486; type: cell-based, human; settings: for Relative cell count (%) Mean: ST486
Protocol: as §1, §2, §3, §4, §5

[3] = test system: CAMA-1; assay: OncoPanel cell proliferation assay, CAMA-1; settings: for Relative cell count (%) Mean: CAMA-1
Protocol: (§6) Cells were seeded into 384-well plates and incubated in a humidified atmosphere of 5% CO2 at 37° C. Compounds were added the day following cell seeding. At the same time, a time zero untreated cell plate was generated. After a 3-day incubation period, cells were fixed and stained to allow fluorescence imaging of nuclei. Compounds (1 mM stock solutions) were serially diluted in half-log steps from the highest test concentration (1 micromol), and assayed over 10 concentrations with a maximum assay concentration of 0.1% DMSO. Automated fluorescence microscopy was carried out using a Molecular Devices ImageXpress Micro XL high-content imager, and images were collected with a 4× objective. 16-bit TIFF images were acquired and analyzed with MetaXpress 5.1.0.41 software.
(§7) GI50 is the concentration needed to reduce the observed growth by half (midway between the curve maximum and the time zero value). […] In rare instances, values <0 or >10 may be observed. […] Curve-fitting, calculations, and report generation was performed using a custom data reduction engine and MathIQ based software (AIM).

[4] = test system: MES-SA; assay: OncoPanel cell proliferation assay, MES-SA; type: cell-based, human
Protocol: as §1, §2, §3, §4, §5

[5] = test system: RL95-2; assay: OncoPanel cell proliferation assay, RL95-2; type: cell-based, human; settings: for Relative cell count (%) Mean: RL95-2
Protocol: as §1, §2, §3, §4, §5

[6] = test system: CHP-212; assay: OncoPanel cell proliferation assay, CHP-212; settings: for Relative cell count (%) Mean: CHP-212
Protocol: as §6, §7

[7] = test system: CaOV3; assay: OncoPanel cell proliferation assay, CaOV3; type: cell-based, human; settings: CaOV3, scale 0-10
Protocol: as §1, §2, §3, §4, §5

Compound: CO[C@H]1C[C@@H]2CC[C@@H](C)[C@@](O)(O2)C(=O)C(=O)N2CCCC[C@H]2C(=O)O[C@H]([C@H](C)C[C@@H]2C[C@@H]3C[C@H]2C[C@H]3O)CC(=O)[C@H](C)/C=C(\C)[C@@H](O)[C@@H](OC)C(=O)[C@H](C)C[C@H](C)/C=C/C=C/C=C/1C [Formula I, 37R-hydroxynorbornylrapamycin]
- EC50 ([1]; Homo sapiens, NCI-H446, 72 h, NCIH446, 3-day incubation, read-out: Cell Count EC50): 1.37 nM
- GI50 ([1]; Homo sapiens, NCI-H446, 72 h, NCIH446, 3-day incubation, read-out: Cell Count GI50): 75.5 nM
- IC50 ([1]; Homo sapiens, NCI-H446, 72 h, NCIH446, 3-day incubation, read-out: Cell Count IC50): > 1000 nM
- Cell Count Activity Area ([1]; NCIH446, scale 0-10): 1.96
- Relative cell count (%) Mean ([1]; 1.00E+00 microM): 69.7%
- Relative cell count (%) Mean ([1]; 1.00E−01 microM): 77.0%
- Relative cell count (%) Mean ([1]; 1.00E−02 microM): 75.9%
- Relative cell count (%) Mean ([1]; 1.00E−03 microM): 88.1%
- Relative cell count (%) Mean ([1]; 1.01E−04 microM): 102.8%
- Relative cell count (%) Mean ([1]; 3.16E−01 microM): 71.2%
- Relative cell count (%) Mean ([1]; 3.17E−02 microM): 85.0%
- Relative cell count (%) Mean ([1]; 3.17E−03 microM): 82.3%
- Relative cell count (%) Mean ([1]; 3.18E−04 microM): 100.1%
- Relative cell count (%) Mean ([1]; 3.18E−05 microM): 99.4%
- EC50 ([2]; Homo sapiens, 72 h, ST486, 3-day incubation, read-out: Cell Count EC50): 0.128 nM
- GI50 ([2]; Homo sapiens, 72 h, ST486, 3-day incubation, read-out: Cell Count GI50): 0.226 nM
- IC50 ([2]; Homo sapiens, 72 h, ST486, 3-day incubation, read-out: Cell Count IC50): > 1000 nM
- Cell Count Activity Area ([2]; ST486, scale 0-10): 3.70
- Relative cell count (%) Mean ([2]; 1.00E+00 microM): 50.5%
- Relative cell count (%) Mean ([2]; 1.00E−01 microM): 58.5%
- Relative cell count (%) Mean ([2]; 1.00E−02 microM): 56.8%
- Relative cell count (%) Mean ([2]; 1.00E−03 microM): 61.1%
- Relative cell count (%) Mean ([2]; 1.01E−04 microM): 81.6%
- Relative cell count (%) Mean ([2]; 3.16E−01 microM): 51.1%
- Relative cell count (%) Mean ([2]; 3.17E−02 microM): 54.8%
- Relative cell count (%) Mean ([2]; 3.17E−03 microM): 56.0%
- Relative cell count (%) Mean ([2]; 3.18E−04 microM): 63.3%
- Relative cell count (%) Mean ([2]; 3.18E−05 microM): 90.7%
- Cell Count Activity Area ([3]; CAMA-1, scale 0-10): 4.42
- Relative cell count (%) Mean ([3]; 1.00E+00 microM): 44.1%
- Relative cell count (%) Mean ([3]; 1.00E−01 microM): 45.8%
- Relative cell count (%) Mean ([3]; 1.00E−02 microM): 51.2%
- Relative cell count (%) Mean ([3]; 1.00E−03 microM): 53.9%
- Relative cell count (%) Mean ([3]; 1.01E−04 microM): 86.0%
- Relative cell count (%) Mean ([3]; 3.16E−01 microM): 46.2%
- Relative cell count (%) Mean ([3]; 3.17E−02 microM): 48.8%
- Relative cell count (%) Mean ([3]; 3.17E−03 microM): 50.2%
- Relative cell count (%) Mean ([3]; 3.18E−04 microM): 66.1%
- Relative cell count (%) Mean ([3]; 3.18E−05 microM): 97.5%
- EC50 ([3]; Homo sapiens, CAMA-1, 72 h, read-out: Cell Count EC50): 0.174 nM
- GI50 ([3]; Homo sapiens, CAMA-1, 72 h, read-out: Cell Count GI50): 0.239 nM
- IC50 ([3]; Homo sapiens, CAMA-1, 72 h, read-out: Cell Count IC50): 1.28 nM
- Relative cell count (%) Mean ([4]; 1.00E+00 microM): 27.9%
- Relative cell count (%) Mean ([4]; 1.00E−01 microM): 28.9%
- Relative cell count (%) Mean ([4]; 1.00E−02 microM): 32.0%
- Relative cell count (%) Mean ([4]; 1.00E−03 microM): 45.0%
- Relative cell count (%) Mean ([4]; 1.01E−04 microM): 93.8%
- Relative cell count (%) Mean ([4]; 3.16E−01 microM): 26.8%
- Relative cell count (%) Mean ([4]; 3.17E−02 microM): 28.6%
- Relative cell count (%) Mean ([4]; 3.17E−03 microM): 37.3%
- Relative cell count (%) Mean ([4]; 3.18E−04 microM): 64.3%
- Relative cell count (%) Mean ([4]; 3.18E−05 microM): 98.1%
- EC50 ([4]; Homo sapiens, 72 h, 3-day incubation, read-out: Cell Count EC50): 0.322 nM
- GI50 ([4]; Homo sapiens, 72 h, 3-day incubation, read-out: Cell Count GI50): 0.495 nM
- IC50 ([4]; Homo sapiens, 72 h, 3-day incubation, read-out: Cell Count IC50): 0.644 nM
- Cell Count Activity Area ([4]; scale 0-10): 5.42
- EC50 ([5]; Homo sapiens, 72 h, RL95-2, 3-day incubation, read-out: Cell Count EC50): 0.15 nM
- GI50 ([5]; Homo sapiens, 72 h, RL95-2, 3-day incubation, read-out: Cell Count GI50): 0.22 nM
- IC50 ([5]; Homo sapiens, 72 h, RL95-2, 3-day incubation, read-out: Cell Count IC50): 10.9 nM
- Cell Count Activity Area ([5]; RL95-2, scale 0-10): 4.12
- Relative cell count (%) Mean ([5]; 1.00E+00 microM): 47.2%
- Relative cell count (%) Mean ([5]; 1.00E−01 microM): 50.6%
- Relative cell count (%) Mean ([5]; 1.00E−02 microM): 52.2%
- Relative cell count (%) Mean ([5]; 1.00E−03 microM): 59.5%
- Relative cell count (%) Mean ([5]; 1.01E−04 microM): 78.3%
- Relative cell count (%) Mean ([5]; 3.16E−01 microM): 45.6%
- Relative cell count (%) Mean ([5]; 3.17E−02 microM): 48.5%
- Relative cell count (%) Mean ([5]; 3.17E−03 microM): 52.9%
- Relative cell count (%) Mean ([5]; 3.18E−04 microM): 64.0%
- Relative cell count (%) Mean ([5]; 3.18E−05 microM): 89.3%
- Cell Count Activity Area ([6]; CHP-212, scale 0-10): 3.70
- Relative cell count (%) Mean ([6]; 1.00E−01 microM): 49.6%
- Relative cell count (%) Mean ([6]; 1.00E−02 microM): 52.8%
- Relative cell count (%) Mean ([6]; 1.00E−03 microM): 56.6%
- Relative cell count (%) Mean ([6]; 1.01E−04 microM): 70.6%
- Relative cell count (%) Mean ([6]; 3.16E−01 microM): 45.9%
- Relative cell count (%) Mean ([6]; 3.17E−02 microM): 49.0%
- Relative cell count (%) Mean ([6]; 3.17E−03 microM): 55.3%
- Relative cell count (%) Mean ([6]; 3.18E−04 microM): 63.3%
- Relative cell count (%) Mean ([6]; 3.18E−05 microM): 86.7%
- EC50 ([6]; Homo sapiens, CHP-212, 72 h, read-out: Cell Count EC50): 0.0918 nM
- GI50 ([6]; Homo sapiens, CHP-212, 72 h, read-out: Cell Count GI50): 0.125 nM
- IC50 ([6]; Homo sapiens, CHP-212, 72 h, read-out: Cell Count IC50): 19.3 nM
- Cell Count Activity Area [7]: 2.82
